{"source": "patent US7700375B2", "about": "“Fluorescent labeling of specific protein targets in vitro and in vivo” (Valorisation-Recherche, LP, priority 2004, dated 2010)", "key": {"diCys-Fos [1]": {"biological_target": "T1, diCys-Fos (Homo sapiens, UniProt P01100, C204S/L161C)", "T1 sequence (P01100 118-211 L161C/C204S limits assumed)": "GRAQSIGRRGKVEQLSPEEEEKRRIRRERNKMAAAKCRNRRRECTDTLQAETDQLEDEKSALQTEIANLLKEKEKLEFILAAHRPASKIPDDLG", "test": "Protein labeling in vitro, SDS-PAGE with UV illumination", "format": "biochemical", "design": "the C99S mutant of a fragment of Fos", "conditions": "0.242 mM protein, 0.5 mM of 20 or 0.05 mM of 13, 25° C. overnight", "method": "(§1) As mentioned in the introduction, an α-helical protein was designed to bear two cysteine residues, separated by a distance complementary to that between the maleimide groups of the designated fluorogen. The protein chosen as a starting point for this design was the C99S mutant of a fragment of Fos,^21 a known α-helical protein^22 whose recombinant expression has been published.^23 Site-directed mutagenesis was then performed^20,35 to introduce a cysteine residue (L56C), separated by two turns of the α-helical motif from the native Cys49, positioning the protein's only two thiol groups approximately 10 Å apart.^36 Although at higher concentrations, Fos is known to form a homodimer,^22 the distance between the intermolecular cysteine residues in this putative homodimer would render their reaction with a single fluorogen molecule impossible. […]\n(§2) Purified mCys-Fos and diCys-Fos were then tested in vitro for their ability to react with fluorogens 13 and 20. After incubation of 0.242 mM protein with 0.5 mM of 20 or 0.05 mM of 13 at 25° C. overnight, glycerol was added and the reaction mixtures were analyzed by SDS-PAGE using UV illumination and then Coomassie blue staining. […]"}, "[2]": {"test": "Fluorescence spectral properties of fluorogens and their ethanethiol adducts", "format": "physicochemical", "conditions": "10:90 DMSO: water", "method": "For the application of this fluorogenic reaction to the detection of thiols and dithiols, two important criteria are the fluorescence intensity of the thiol addition product and the ratio of its fluorescence compared to its parent fluorogen. We studied the effect of electron withdrawing and donating substituants on these criteria by preparing the derivatives of fluorogen 4 shown in Scheme 1. Fluorogen 5, bearing an electron withdrawing ester group, was prepared according to a protocol similar to that used for fluorogen 4, but using an ester-substituted maleic anhydride derived by oxidation of dimethyl L-tartrate according to a published procedure.^31 Fluorogen 6 bears an electron donating methyl group and was obtained in similar yield by adaptation of the standard literature protocol,^25 using citraconic anhydride. The reaction of 5 and 6 with ethanethiol in DMSO led to the formation of thiol adducts 8 and 9, whose fluorescence was characterized as shown in Table 1. Even from this small series, certain tendencies are apparent. Increasing the electron donating capacity of the substituent appears to have a significant effect on the absorbance maximum corresponding to the wavelength of excitation, increasing by 37 nm from 8 to 9. Although the emission wavelength increases very slightly over the same series, the net effect on the Stokes shift is a significant decrease with increasing electron donating capacity of the substituent.\n(§3) Comparison of the fluorescent properties^34 of the four different parent fluorogens (and their corresponding thiol adducts) studied herein (see Table 2) substantiates our retention of compounds 13 and 20 as candidates for further tests with proteins.\nThe following material were obtained from Aldrich and were used without further purification: 2-hydroxy-5-nitrobenzaldehyde, N-acetylglycine, maleic anhydride, p-nitrophenylacetic acid, L-aspartic acid dimethyl ester hydrochloride, citraconic anhydride, dimethyl L-tartrate, dimethyl malonate. All reactions were carried out under an atmosphere of dry nitrogen employing conventional bench-top techniques except for reactions with thiols. ^13C-NMR and ^1H-NMR spectra were recorded on AMXR400 or AMX300 spectrometers and were referenced to the residual proton or ^13C signal of the solvent. Mass spectra were determined by FAB+ ionization on an AutoSpecQ spectrometer at the Regional Mass Spectrometry Centre at the Université de Montréal. Infrared spectra were recorded on a Perkin-Elmer (FTIR) spectrometer. Melting points (uncorrected) were determined on a Unimelt Tomas-Hoover or on a Gallenkamp meting point apparatus. Fluorescence spectra were recorded using a Varian Cary Eclipse fluorimeter and gel electrophoresis was carried out on a SpectraPhoresis 100 apparatus."}, "diCys-Fos [3]": {"biological_target": "T1, diCys-Fos", "test": "Labeling in lysate of E. coli cells expressing diCys-Fos, SDS-PAGE", "format": "biochemical", "conditions": "overnight at 25° C.", "method": "The specificity of the dithiol addition reaction of 20 with diCys-Fos in the presence of other proteins was also confirmed through a simple in vitro experiment. The lysate of E. coli cells expressing diCys-Fos was allowed to react with 20 overnight at 25° C. prior to analysis by SDS-PAGE."}, "COS cells": {"system": "COS cells", "test": "Cytotoxicity, MTT and PI assays", "format": "cell-based", "method": "(§4) Finally, we wished to determine if fluorogens such as 13 and 20 were cytotoxic. […] Furthermore, even at 300 μM 20, the limit of its solubility in cell culture, 70% of COS cells were still viable (FIG. 8). […] The convenience of the application of this fluorescent labeling method is obvious from the low cytoxocity of 20, even at concentrations 30 times greater than those necessary for efficient labeling."}, "diCys-Fos [4]": {"biological_target": "T1, diCys-Fos", "test": "Protein labeling in living COS cells expressing diCys-Fos fused to RBD of Raf", "format": "cell-based", "design": "the C99S mutant of a fragment of Fos; expressed in transfected cells; host or cells: COS cells", "method": "The ultimate proof of principle for this method is its successful application to labeling a specific protein in living eukaryotic cells. To test for this potential, our diCys-Fos probe protein was genetically fused to RBD, the Ras-binding domain of Raf, and COS cells were then transfected with the expression plasmid for this fusion protein. A solution of 20 was then added to cultures of COS cells expressing diCys-Fos as well as mock COS cells transfected with an empty expression plasmid."}, "Solubility": {"test": "Solubility", "format": "physicochemical", "method": "as §3, §4"}, "mCys-Fos": {"biological_target": "T2, mCys-Fos (Homo sapiens, UniProt P01100, C204S)", "T2 construct": "the C99S mutant of a fragment of Fos; His-tag (N); made in house; host or cells: XL1-blue E. coli", "T2 sequence (P01100 118-211 C204S limits assumed)": "as the sequence (P01100 118-211 L161C/C204S limits assumed) above, with C44L counted along it", "test": "Protein labeling in vitro, SDS-PAGE with UV illumination", "format": "biochemical", "conditions": "0.242 mM protein, 0.5 mM of 20 or 0.05 mM of 13, 25° C. overnight", "method": "as §1, §2"}}}
{"smiles": "COC(=O)C[C@@H](C(=O)OC)N1C(=O)c2cc(N3C(=O)C=CC3=O)cc3cc(N4C(=O)C=CC4=O)cc(c23)C1=O", "note": "[Compound 20, N-(3,6-Dimaleimidyl-1,8-naphthalyl)-L-aspartic acid dimethyl ester]", "values": [{"measurement": "fluorescent labeling of diCys-Fos", "setting": "diCys-Fos [1]", "value": "efficiently fluorescently labeled"}, {"measurement": "Stokes shift", "setting": "[2]", "value": 67, "unit": "nm"}, {"measurement": "λem (emission band)", "setting": "[2]", "value": "525-650 nm"}, {"measurement": "λem, wavelength corresponding to center of Full Width at Half Maximum of emission band", "setting": "[2]", "value": 578, "unit": "nm"}, {"measurement": "λexc", "setting": "[2]", "value": 511, "unit": "nm"}, {"measurement": "IF Ratio", "setting": "[2]; ratio of areas under emission bands of fluorogen and thiol adduct", "value": 8.5}, {"measurement": "selectivity for diCys-Fos in the presence of other cytosolic proteins", "setting": "diCys-Fos [3]", "value": "selectivity of 20 for its designated target protein"}, {"measurement": "viable COS cells", "setting": "COS cells; 300 μM", "value": 70, "unit": "%"}, {"measurement": "concentration with low cytotoxicity relative to that necessary for efficient labeling", "setting": "COS cells; COS cells", "value": 30, "unit": "times"}, {"measurement": "percentage of viable COS cells", "setting": "COS cells; concentrations of up to 30 μM", "value": "unaffected"}, {"measurement": "fluorescence of COS cells expressing diCys-Fos vs mock COS cells", "setting": "diCys-Fos [4]; 10 μM, 20 minutes, room temperature", "value": "significant difference in fluorescence"}, {"measurement": "cell permeability", "setting": "diCys-Fos [4]; COS cells", "value": "confirming the cell permeability"}, {"measurement": "solubility in water / aqueous DMSO", "setting": "Solubility", "value": "soluble in aqueous solutions containing as little as 5% DMSO"}, {"measurement": "solubility", "setting": "Solubility; cell culture, plasma or biological fluid, read-out: limit of solubility in cell culture", "value": 300, "unit": "µM"}, {"measurement": "fluorescent labeling of mCys-Fos", "setting": "mCys-Fos", "value": "is not"}]}
